From ChEMBL document CHEMBL1275320, “Positive allosteric modulators of the α-amino-3-hydroxy-5-methyl-4-isoxazolepropionic acid (AMPA) receptor” (J Med Chem, 2010)
Several values for one entry are separate records, joined by “and”; a condition that tells them apart may be missing. Equal values may be shown once.

What was measured:
Glutamate receptor 2 [1] = target: T1, Glutamate receptor 2 (Homo sapiens, UniProt P42262); test: Inhibition of GluR2 flop expressed in HEK cells; assay type: cell-based, HEK293
Glutamate receptor 4 [2] = target: Glutamate receptor 4 (Homo sapiens, UniProt P48058); test: Inhibition of GluR4 expressed in HEK293 cells; assay type: cell-based
[3] = Agonist activity at AMPA receptor in rat cortical neurons assessed as change in increase in AMPA current; assay type: functional
[4] = target: Glutamate receptor AMPA 3/4 (Rattus norvegicus, UniProt P19492+P19493); test: Inhibition of GluR3/4 rat in hippocampal neuron; assay type: tissue-based, Hippocampus
Glutamate receptor 1 = Glutamate receptor 1 (Homo sapiens, UniProt P42261); test: Inhibition of GluR1 expressed in HEK cells; assay type: cell-based, HEK293
Glutamate receptor 2 [5] = target: T1, Glutamate receptor 2; test: Agonist activity at GluR2 receptor; assay type: functional
[6] = Agonist activity at AMPA receptor at 30 uM by FLIPR assay; assay type: functional
[7] = Agonist activity at AMPA receptor by FLIPR assay; assay type: functional
[8] = target: Glutamate receptor AMPA 3/4 (Homo sapiens, UniProt P42263+P48058); test: Inhibition of GluR3/4 expressed in Xenopus oocyte
[9] = Agonist activity at rat AMPA receptor assessed as AMPA-induced calcium uptake; assay type: functional
Rattus norvegicus = organism: Rattus norvegicus; test: Agonist activity at rat AMPA receptor assessed as change in EPSC amplitude; assay type: functional
Glutamate receptor 2 [10] = target: T1, Glutamate receptor 2; test: Inhibition of human recombinant GluR2
Glutamate receptor 3 = Glutamate receptor 3 (Homo sapiens, UniProt P42263); test: Inhibition of GluR3 expressed in HEK cells; assay type: cell-based, HEK293
Glutamate receptor 2 [11] = target: T1, Glutamate receptor 2; test: Inhibition of GluR2 expressed in HEK cells at 3 uM; assay type: cell-based; conditions: HEK293
Glutamate receptor 4 [12] = target: Glutamate receptor 4 (Rattus norvegicus, UniProt P19493); test: Inhibition of rat recombinant GluR4 in cells
Chain of Glutamate receptor 4 (Rattus norvegicus, UniProt P19493) (P19493 whole entry): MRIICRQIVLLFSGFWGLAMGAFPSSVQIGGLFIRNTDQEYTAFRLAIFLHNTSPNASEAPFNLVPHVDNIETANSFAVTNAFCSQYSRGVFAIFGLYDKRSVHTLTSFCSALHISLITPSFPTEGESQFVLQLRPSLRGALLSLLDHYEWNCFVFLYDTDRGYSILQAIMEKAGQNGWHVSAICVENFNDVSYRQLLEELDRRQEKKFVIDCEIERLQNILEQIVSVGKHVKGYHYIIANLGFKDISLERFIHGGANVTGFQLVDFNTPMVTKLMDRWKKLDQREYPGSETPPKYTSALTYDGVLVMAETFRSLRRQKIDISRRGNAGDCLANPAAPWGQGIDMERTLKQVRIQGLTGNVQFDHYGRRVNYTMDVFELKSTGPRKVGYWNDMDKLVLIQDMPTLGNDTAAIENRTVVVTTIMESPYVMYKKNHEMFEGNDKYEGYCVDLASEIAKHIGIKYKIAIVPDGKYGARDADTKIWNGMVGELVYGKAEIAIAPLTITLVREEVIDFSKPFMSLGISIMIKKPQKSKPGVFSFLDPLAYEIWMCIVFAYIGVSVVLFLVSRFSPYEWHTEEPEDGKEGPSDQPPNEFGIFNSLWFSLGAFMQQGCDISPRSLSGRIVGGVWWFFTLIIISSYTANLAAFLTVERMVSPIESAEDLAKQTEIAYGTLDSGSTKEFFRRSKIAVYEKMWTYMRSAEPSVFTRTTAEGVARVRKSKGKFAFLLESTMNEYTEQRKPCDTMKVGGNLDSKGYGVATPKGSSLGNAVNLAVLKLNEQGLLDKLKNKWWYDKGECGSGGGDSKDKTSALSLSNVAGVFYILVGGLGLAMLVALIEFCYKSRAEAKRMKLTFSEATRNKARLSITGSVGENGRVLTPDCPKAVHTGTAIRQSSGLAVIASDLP

Chain of Glutamate receptor 1 (P42261 whole entry): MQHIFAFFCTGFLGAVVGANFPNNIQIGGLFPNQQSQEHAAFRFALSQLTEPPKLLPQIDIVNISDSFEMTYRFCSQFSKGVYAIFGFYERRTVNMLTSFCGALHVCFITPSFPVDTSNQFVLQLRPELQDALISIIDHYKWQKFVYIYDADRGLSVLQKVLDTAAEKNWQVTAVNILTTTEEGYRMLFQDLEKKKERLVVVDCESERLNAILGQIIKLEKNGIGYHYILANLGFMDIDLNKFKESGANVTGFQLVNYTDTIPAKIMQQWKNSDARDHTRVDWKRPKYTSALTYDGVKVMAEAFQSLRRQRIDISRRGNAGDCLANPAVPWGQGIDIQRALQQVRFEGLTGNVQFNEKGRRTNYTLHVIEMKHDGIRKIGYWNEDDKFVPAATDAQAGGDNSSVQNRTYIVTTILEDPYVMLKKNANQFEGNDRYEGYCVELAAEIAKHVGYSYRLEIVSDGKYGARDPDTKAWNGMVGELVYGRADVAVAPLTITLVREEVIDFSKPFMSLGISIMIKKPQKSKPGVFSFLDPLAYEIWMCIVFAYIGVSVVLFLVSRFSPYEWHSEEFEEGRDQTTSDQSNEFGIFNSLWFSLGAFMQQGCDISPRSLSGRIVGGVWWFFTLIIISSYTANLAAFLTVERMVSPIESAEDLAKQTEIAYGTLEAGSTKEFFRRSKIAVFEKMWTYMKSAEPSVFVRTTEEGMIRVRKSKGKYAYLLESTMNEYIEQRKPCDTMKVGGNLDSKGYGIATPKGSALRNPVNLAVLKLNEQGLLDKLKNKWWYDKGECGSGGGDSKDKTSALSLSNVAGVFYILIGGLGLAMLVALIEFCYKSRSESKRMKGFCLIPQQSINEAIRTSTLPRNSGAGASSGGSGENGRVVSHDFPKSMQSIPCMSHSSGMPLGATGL
Chain of Glutamate receptor AMPA 3/4 (Rattus norvegicus, UniProt P19492+P19493) (P19492 whole entry): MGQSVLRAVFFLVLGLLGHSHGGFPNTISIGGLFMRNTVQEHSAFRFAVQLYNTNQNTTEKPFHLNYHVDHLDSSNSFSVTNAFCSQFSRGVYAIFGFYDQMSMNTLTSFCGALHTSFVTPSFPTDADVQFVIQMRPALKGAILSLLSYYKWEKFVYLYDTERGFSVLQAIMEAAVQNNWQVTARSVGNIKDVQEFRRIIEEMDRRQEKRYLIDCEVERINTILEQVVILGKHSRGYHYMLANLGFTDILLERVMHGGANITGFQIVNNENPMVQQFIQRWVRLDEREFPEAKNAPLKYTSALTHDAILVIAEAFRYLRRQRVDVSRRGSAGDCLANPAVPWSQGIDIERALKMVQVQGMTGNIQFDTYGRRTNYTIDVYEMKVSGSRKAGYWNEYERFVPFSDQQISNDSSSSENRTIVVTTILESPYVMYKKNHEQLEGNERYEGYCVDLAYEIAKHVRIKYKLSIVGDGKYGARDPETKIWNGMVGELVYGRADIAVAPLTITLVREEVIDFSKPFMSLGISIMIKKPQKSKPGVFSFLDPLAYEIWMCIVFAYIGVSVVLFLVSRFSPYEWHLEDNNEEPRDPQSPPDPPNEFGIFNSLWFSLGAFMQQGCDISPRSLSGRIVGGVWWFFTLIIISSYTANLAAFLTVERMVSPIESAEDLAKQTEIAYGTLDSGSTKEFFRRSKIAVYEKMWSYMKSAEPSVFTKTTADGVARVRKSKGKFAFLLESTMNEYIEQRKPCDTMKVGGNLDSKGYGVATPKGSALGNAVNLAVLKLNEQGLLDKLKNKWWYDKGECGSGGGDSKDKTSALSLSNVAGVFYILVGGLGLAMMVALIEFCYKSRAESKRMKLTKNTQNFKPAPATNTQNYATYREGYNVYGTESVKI
Chain of Glutamate receptor AMPA 3/4 (Rattus norvegicus, UniProt P19492+P19493) (P19493 whole entry): as the sequence (P19493 whole entry) above
T1 sequence (P42262 whole entry): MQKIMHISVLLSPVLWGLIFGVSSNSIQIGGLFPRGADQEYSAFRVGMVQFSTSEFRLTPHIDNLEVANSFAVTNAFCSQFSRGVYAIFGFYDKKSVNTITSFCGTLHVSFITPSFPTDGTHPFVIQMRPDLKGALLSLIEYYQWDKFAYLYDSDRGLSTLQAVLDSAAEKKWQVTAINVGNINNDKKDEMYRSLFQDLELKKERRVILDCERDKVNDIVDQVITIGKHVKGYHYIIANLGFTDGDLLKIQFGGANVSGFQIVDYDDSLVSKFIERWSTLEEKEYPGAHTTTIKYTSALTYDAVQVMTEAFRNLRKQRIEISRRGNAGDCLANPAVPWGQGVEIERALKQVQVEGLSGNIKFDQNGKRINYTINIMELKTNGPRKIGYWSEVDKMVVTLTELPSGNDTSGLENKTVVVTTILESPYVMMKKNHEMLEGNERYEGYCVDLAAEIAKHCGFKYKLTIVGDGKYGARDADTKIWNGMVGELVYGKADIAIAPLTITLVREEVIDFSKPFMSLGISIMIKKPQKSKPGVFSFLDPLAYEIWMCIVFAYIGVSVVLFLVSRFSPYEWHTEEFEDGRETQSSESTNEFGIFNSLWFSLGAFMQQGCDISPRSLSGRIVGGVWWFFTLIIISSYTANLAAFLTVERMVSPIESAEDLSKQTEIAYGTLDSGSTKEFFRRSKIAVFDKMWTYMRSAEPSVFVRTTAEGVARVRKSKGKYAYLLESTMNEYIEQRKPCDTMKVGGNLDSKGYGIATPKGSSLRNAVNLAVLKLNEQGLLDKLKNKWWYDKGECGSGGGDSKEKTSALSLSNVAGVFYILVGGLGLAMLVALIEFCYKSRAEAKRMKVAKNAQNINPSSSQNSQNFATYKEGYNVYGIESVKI
Chain of Glutamate receptor 4 (Homo sapiens, UniProt P48058) (P48058 whole entry): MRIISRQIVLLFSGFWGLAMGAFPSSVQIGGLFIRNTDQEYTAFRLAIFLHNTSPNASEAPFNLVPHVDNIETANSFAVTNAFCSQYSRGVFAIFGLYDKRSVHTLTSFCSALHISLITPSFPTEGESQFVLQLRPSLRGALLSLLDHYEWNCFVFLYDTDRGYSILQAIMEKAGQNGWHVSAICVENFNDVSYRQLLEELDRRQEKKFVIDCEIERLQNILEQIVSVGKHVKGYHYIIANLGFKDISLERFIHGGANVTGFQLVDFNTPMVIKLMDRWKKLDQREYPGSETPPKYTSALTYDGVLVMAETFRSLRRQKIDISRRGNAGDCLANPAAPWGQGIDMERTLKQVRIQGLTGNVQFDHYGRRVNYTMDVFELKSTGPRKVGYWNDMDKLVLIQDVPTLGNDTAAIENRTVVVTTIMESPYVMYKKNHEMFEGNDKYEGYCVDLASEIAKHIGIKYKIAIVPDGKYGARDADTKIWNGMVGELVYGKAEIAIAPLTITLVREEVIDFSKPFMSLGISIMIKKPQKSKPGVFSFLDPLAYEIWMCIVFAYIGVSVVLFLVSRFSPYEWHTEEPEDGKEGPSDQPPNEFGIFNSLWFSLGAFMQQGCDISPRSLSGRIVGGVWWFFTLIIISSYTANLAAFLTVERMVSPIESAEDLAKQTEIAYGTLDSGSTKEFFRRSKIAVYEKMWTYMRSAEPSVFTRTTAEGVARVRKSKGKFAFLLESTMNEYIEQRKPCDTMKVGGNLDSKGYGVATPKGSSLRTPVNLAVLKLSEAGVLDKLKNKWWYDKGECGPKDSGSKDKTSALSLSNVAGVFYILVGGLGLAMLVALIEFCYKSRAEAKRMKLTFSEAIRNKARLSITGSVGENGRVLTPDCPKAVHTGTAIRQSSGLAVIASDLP

## C[C@@H](CNS(C)(=O)=O)c1ccccc1
Glutamate receptor 2 [1]
  EC50: 1980 µM

## CC(C)S(=O)(=O)NC[C@H](C)c1ccc(-c2ccc(CCNS(C)(=O)=O)cc2)cc1 [MIBAMPATOR]
Glutamate receptor 4 [2]
  EC50: 0.15 µM

## O=S1(=O)N[C@H]2CCCN2c2ccc(Cl)cc21
[3]
  EC2: 60 µM

## O=C1c2cc3c(cc2OC2CCCN12)OCCO3 (stereo unspecified)
[4]
  EC50: 43.7 µM
Glutamate receptor 1
  EC50: 21 µM

## CC(=O)c1s/c(=N\c2ccc(OC(F)(F)F)cc2)n(CCO)c1C
Glutamate receptor 2 [5]
  EC50: < 200 µM
[6]
  Activity: 15%

## CCN1CC[C@@H](c2ccc(-c3ccccc3)cc2)[C@H](NS(=O)(=O)C(C)C)C1
[7]
  EC50: < 10 µM

## CC1(C)CC(=O)C2=C(C1)OC(N)=C(C#N)C2c1ccc2ccccc2c1 (stereo unspecified)
[8]
  EC50: 1.6 µM
[3]
  EC2: 1.6 µM

## COc1ccc(C(=O)N2CCCC2=O)cc1
[8]
  EC50: > 1000 µM
[9]
  EC50: > 100 µM

## COCc1cccc(C(=O)N2CCCCC2)c1
Rattus norvegicus
  Activity: 25%

## CC(C)S(=O)(=O)N[C@H]1Cc2ccc(-n3nc(C(F)(F)F)c4c3CCCC4)cc2C1
Glutamate receptor 2 [10]
  EC50: < 300 µM

## CC(C)S(=O)(=O)NCCCCCCCCNS(=O)(=O)C(C)C
Glutamate receptor 1
  EC50: 0.91 µM

## CC(C)S(=O)(=O)N[C@@H]1CCC[C@@H]1c1ccc(I)cc1
Glutamate receptor 4 [2]
  EC50: 0.23 µM

## CC(CNS(=O)(=O)C(C)C)c1ccc(-c2ccc(C#N)cc2)cc1 (stereo unspecified)
Glutamate receptor 1
  EC50: 5.65 µM
Glutamate receptor 2 [1]
  EC50: 1.44 µM
[7]
  EC50: 0.29 µM
Glutamate receptor 3
  EC50: 1.66 µM
Glutamate receptor 2 [5]
  EC50: 0.15 µM

## O=C1CCCN1Cc1ccc(-n2nc(C(F)(F)F)c3c2COCC3)cc1F
Glutamate receptor 2 [10]
  EC50: < 300 µM

## O=C1CCCN1[C@H]1Cc2ccc(-n3cc(C4CC4)c(C(F)(F)F)n3)cc2C1
Glutamate receptor 2 [10]
  EC50: < 300 µM

## CC(CNS(=O)(=O)C(C)C)c1ccc(Br)cc1 (stereo unspecified)
Glutamate receptor 2 [11]
  inhibition: 26%

## CC(C)S(=O)(=O)N[C@@H]1CCC[C@@H]1c1ccc(Br)cc1
Glutamate receptor 4 [2]
  EC50: 0.52 µM
Glutamate receptor 2 [5]
  EC50: 0.52 µM

## CN(C)C(=O)c1ccc(-n2nc(C(F)(F)F)c3c2CCOC3)cc1
Glutamate receptor 2 [10]
  EC50: < 300 µM
[6]
  Activity: 14%

## O=C(Cn1nc(C(F)(F)F)c2c1CCCC2)Nc1sc2c(c1C(=O)NCCc1ccccn1)CCCC2
Glutamate receptor 1
  EC50: < 10 µM

## O=C1c2cc3nnn(CCc4cccc(F)c4)c(=O)c3cc2OCN1C1CC1
[3]
  EC2: 0.1 µM

## CC(C)S(=O)(=O)NCCCCCCCCCNS(=O)(=O)C(C)C
Glutamate receptor 1
  EC50: 0.66 µM

## CC(CNS(C)(=O)=O)c1ccc(C(C)(C)C)cc1 (stereo unspecified)
Glutamate receptor 4 [2]
  EC50: 1.2 µM

## CC(C)S(=O)(=O)N[C@@H]1CN(C)C[C@@H]1c1ccc(-c2ccc(N(C)S(C)(=O)=O)cc2)cc1
Glutamate receptor 2 [10]
  EC50: 1.6 µM

## O=C(c1ccc2nonc2c1)N1CCCCC1 [FARAMPATOR]
[8]
  EC50: 14 µM

## CC(C)S(=O)(=O)NCCCCCCCNS(=O)(=O)C(C)C
Glutamate receptor 1
  EC50: 2.88 µM

## NS(=O)(=O)c1cc2c(cc1Cl)NC(C1CC3C=CC1C3)NS2(=O)=O (stereo unspecified) [CYCLOTHIAZIDE]
[3]
  EC2: 1.6 µM

## O=C(c1ccc2c(c1)OCCO2)N1CCCCC1
[4]
  EC50: 1600 µM

## C[C@H](CNS(C)(=O)=O)c1ccc(-c2ccc([C@@H](C)CNS(C)(=O)=O)cc2)cc1
Glutamate receptor 4 [12]
  EC50: 0.87 µM

## O=C(c1ccc2nccnc2c1)N1CCCCC1 [CX516]
[4]
  EC50: 95 µM
Rattus norvegicus
  Activity: 68%
Glutamate receptor 4 [2]
  EC50: 156 µM and > 1000 µM
